Experimental data taken from ChEMBL document CHEMBL2113921, “Open Source Malaria Deposition 1. http://malaria.ourexperiment.org” (2013).
Values after ≈ are worked out from the molar mass of the structure shown. Blank lines part the entries; values can stand above or below the compound they belong to.

Legend:
Plasmodium falciparum [1] = experiment: OSM: Inhibition of Plasmodium falciparum 3D7 growth. IC50 values determined from 21 point dose response curves. Avery Group Griffith.; type: functional, organism-based
Plasmodium falciparum K1 [2] = experiment: OSM: Percent inhibition of Plasmodium falciparum K1 growth at 120 uM. Avery Group Griffith.; type: functional
[3] = OSM: HEK293 cytotoxicity assay. Duplicate point single experiment at 120 uM. Avery Group, Griffith.; type: toxicity, cell-based; conditions: human, HEK293 cells; read-out: Inhibition
Plasmodium falciparum [4] = experiment: OSM: Percent inhibition of Plasmodium falciparum 3D7 growth at 120 uM. Avery Group Griffith.; type: functional
Plasmodium falciparum [5] = experiment: OSM: Late stage gametocytes. IC50 values determined from 21 point dose response curves. Avery Group Griffith.; type: functional, organism-based; conditions: Pfs16-GFP transgenic NF54
Plasmodium falciparum [6] = experiment: OSM: Inhibition of Plasmodium falciparum 3D7 growth using a SYBR green I fluorescence based assay. Dose response curves were generated comprising of 8 points using a 2-fold serial dilution for the maximum final concentration of 1000 nM. Ralph Group, Bio21.; type: functional, organism-based
Plasmodium falciparum [7] = experiment: OSM: Inhibition of Plasmodium falciparum 3D7 growth using a SYBR green I fluorescence based assay. GSK Tres Cantos.; type: functional, organism-based
Plasmodium falciparum K1 [8] = experiment: OSM: Inhibition of Plasmodium falciparum K1 growth. IC50 values determined from 21 point dose response curves. Avery Group Griffith.; type: functional, organism-based
[9] = OSM: Microsomal stability: 0.5 uM substrate, 0.4 mg/mL protein, NADPH cofactor. Analysed by LC/MS. Degradation half life (min).; type: ADME, Microsome; conditions: human, microsomes
[10] = OSM: Microsomal stability: 0.5 uM substrate, 0.4 mg/mL protein, NADPH cofactor). Analysed by LC/MS. In vitro CLint (uL/min/mg protein).; type: ADME, Microsome; conditions: human, microsomes
[11] = OSM: Microsomal stability: 0.5 uM substrate, 0.4 mg/mL protein, NADPH cofactor. Analysed by LC/MS. Degradation rate classification.; type: ADME, Microsome; conditions: human, microsomes
[12] = OSM: Kinetic solubility pH 6.5 isotonic phosphate buffer.; type: ADME

Compound: CN(C)C(=O)n1cnc(S(=O)(=O)N(C)c2ccccc2)n1
- IC50 (Plasmodium falciparum [1]): 0.333 µM

Compound: Cc1cc(C(=O)CCC(=O)N(C)C)c(C)n1-c1ccc(F)cc1
- IC50 (Plasmodium falciparum [1]): > 40 µM

Compound: CCNC(=O)C1CC(N)CN1Cc1cc(C)n(-c2ccccc2Cl)c1C (centres undefined)
- IC50 (Plasmodium falciparum [1]): 24.7 µM

Compound: COC(=O)c1sccc1NC=O
- IC50 (Plasmodium falciparum [1]): > 40 µM

Compound: CCOC(=O)c1cc(C)n(-c2ccccc2)c1C
- inhibition at 120 µM (Plasmodium falciparum K1 [2]): 0%
- cytotoxicity at 120 µM [3]: 0%
- inhibition at 120 µM (Plasmodium falciparum [4]): 80%

Compound: Clc1ncnc2ccsc12
- IC50 (Plasmodium falciparum [1]): 9.4 µM

Compound: NC(=O)COC(=O)c1cnn(-c2ccc(F)cc2)c1
- IC50 (Plasmodium falciparum [1]): > 40 µM

Compound: COC(=O)[C@@H]1COC(c2cc(C)n(-c3ccc(F)cc3)c2C)=N1
- IC50 (Plasmodium falciparum [1]): > 40 µM

- IC50 (Plasmodium falciparum [5]): 2.96 µM
Compound: COc1ccc2nc3cc(Cl)ccc3c(Nc3cc(CN4CCCC4)c(O)c(CN4CCCC4)c3)c2n1 [PYRONARIDINE]
- IC50 (Plasmodium falciparum [1]): 0.0032 µM

Compound: Cc1cc(C(=O)O)c(C)n1-c1ccccc1
- inhibition at 120 µM (Plasmodium falciparum K1 [2]): 50%
- cytotoxicity at 120 µM [3]: 0%
- inhibition at 120 µM (Plasmodium falciparum [4]): 70%

Compound: CCOC(=O)c1cc(C)n(-c2ccc(C)cc2)c1C
- inhibition at 120 µM (Plasmodium falciparum K1 [2]): 50%
- cytotoxicity at 120 µM [3]: 0%
- inhibition at 120 µM (Plasmodium falciparum [4]): 85%

Compound: Cc1cc(/C=C2\S/C(=N\c3ccccc3)N(CC#N)C2=O)c(C)n1-c1ccc(C(F)(F)F)cc1
- IC50 (Plasmodium falciparum [6]): > 1 µM
- IC50 (Plasmodium falciparum [7]): > 5 µM
- IC50 (Plasmodium falciparum [1]): 3.12 µM

Compound: CCOC(=O)c1cc(C)n(-c2ccc(C(F)(F)F)cc2)c1C
- inhibition at 120 µM (Plasmodium falciparum K1 [2]): 20%
- cytotoxicity at 120 µM [3]: 75%
- inhibition at 120 µM (Plasmodium falciparum [4]): 85%

Compound: Cc1cc(C(=O)NCC(=O)Nc2c(C)n(C)n(-c3ccccc3)c2=O)c(C)n1-c1ccc(F)cc1
- IC50 (Plasmodium falciparum [6]): > 1 µM
- IC50 (Plasmodium falciparum [7]): > 5 µM
- IC50 (Plasmodium falciparum [1]): 31 µM

Compound: Cc1cc(CNCC(N)=O)c(C)n1-c1ccc(F)cc1
- IC50 (Plasmodium falciparum [1]): > 40 µM

Compound: CC(=O)N(C1=NC(=O)/C(=C/c2cc(C)n(-c3ccccc3)c2C)S1)c1ccccc1
- IC50 (Plasmodium falciparum [6]): 0.028 µM
- IC50 (Plasmodium falciparum [7]): 0.085 µM
- IC50 (Plasmodium falciparum [1]): 0.063 µM

Compound: Cc1cc(C(=O)OC(C)C(=O)O)c(C)n1-c1ccc(F)cc1 (centres undefined)
- IC50 (Plasmodium falciparum [1]): > 40 µM

Compound: c1nc(N2CCOCC2)c2sccc2n1
- IC50 (Plasmodium falciparum [1]): > 40 µM

Compound: Cc1c(C(=O)OCC(N)=O)cnn1-c1ccccc1
- IC50 (Plasmodium falciparum [1]): > 40 µM

Compound: Cc1cc(CN(C)CC(N)=O)c(C)n1-c1ccc(F)cc1
- IC50 (Plasmodium falciparum [1]): > 40 µM

Compound: CNC(=O)CN1CCC(NCc2cc(C)n(-c3ccc(Cl)cc3)c2C)CC1
- IC50 (Plasmodium falciparum [1]): 14.7 µM

Compound: CNS(=O)(=O)c1ccc(CNc2ncnc3cc(-c4ccc(OC)cc4)sc23)s1
- IC50 (Plasmodium falciparum [1]): 17.6 µM

Compound: Cc1cc(C(=O)CCC(=O)O)c(C)n1-c1ccc(F)cc1
- IC50 (Plasmodium falciparum [1]): > 40 µM

Compound: COc1ccc(S(=O)(=O)N2CCC(Nc3ncnc4ccsc34)CC2)cc1
- IC50 (Plasmodium falciparum [1]): > 40 µM

Compound: Cc1cc(CNC2CCN(Cc3ccccc3)CC2)c(C)n1-c1ccc(F)cc1
- IC50 (Plasmodium falciparum [1]): 4.8 µM

Compound: CC(Nc1ncnc2ccsc12)c1cccc(S(N)(=O)=O)c1 (centres undefined)
- IC50 (Plasmodium falciparum [1]): > 40 µM

Compound: Cc1cc(C(=O)NCC(=O)N(C)C)c(C)n1-c1ccccc1
- IC50 (Plasmodium falciparum [1]): > 40 µM

Compound: CCOC(=O)c1cc(C)n(-c2ccc(F)cc2)c1C
- IC50 (Plasmodium falciparum K1 [8]): 12.4 µM
- IC50 (Plasmodium falciparum [7]): > 5 µM
- cytotoxicity at 120 µM [3]: 25%
- IC50 (Plasmodium falciparum [1]): 12 µM

Compound: Cc1cc(C(=O)N(C)CC(N)=O)c(C)n1-c1ccc(F)cc1
- IC50 (Plasmodium falciparum [1]): > 40 µM

- half-life at 0.5 µM [9]: 1.53 h
- microsomal CLint at 0.5 µM [10]: 15 µL/min/mg
- Relative metabolic rate [11]: Moderate
- solubility kinetic [12]: 1 µg/mL (≈ 2.55 µM)
Compound: Cc1cc(/C=C2\S/C(=N\c3ccccc3)NC2=O)c(C)n1-c1ccc(F)cc1
- IC50 (Plasmodium falciparum K1 [8]): 0.361 µM
- cytotoxicity at 120 µM [3]: 25%
- IC50 (Plasmodium falciparum [1]): 0.176 µM

Compound: C[C@H]1[C@H](OC(=O)CCC(=O)O)O[C@@H]2O[C@@]3(C)CC[C@H]4[C@H](C)CC[C@@H]1[C@@]24OO3 [ARTESUNATE]
- IC50 (Plasmodium falciparum [7]): 0.019 µM

Compound: CCOC(=O)c1ccc(-n2c(C)cc(/C=C3\S/C(=N/c4ccccc4)NC3=O)c2C)cc1
- IC50 (Plasmodium falciparum [6]): 0.339 µM
- IC50 (Plasmodium falciparum [7]): 0.267 µM
- IC50 (Plasmodium falciparum [1]): 0.169 µM

Compound: CCN(CC(=O)Nc1c(F)cccc1F)C(=O)c1cc(C)n(-c2ccc(F)cc2)c1C
- IC50 (Plasmodium falciparum [1]): > 40 µM

Compound: Cc1cc(C=O)c(C)n1-c1ccccc1
- inhibition at 120 µM (Plasmodium falciparum K1 [2]): 80%
- cytotoxicity at 120 µM [3]: 25%
- inhibition at 120 µM (Plasmodium falciparum [4]): 55%

Compound: Cc1cc(C(=O)N2CCNC(=O)C2)c(C)n1-c1ccccc1
- IC50 (Plasmodium falciparum [1]): > 40 µM

Compound: Cc1cc(-c2nc(C(=O)O)co2)c(C)n1-c1ccc(F)cc1
- IC50 (Plasmodium falciparum [1]): > 40 µM

Compound: CCOc1ccc(Nc2ncnc3ccsc23)cc1S(=O)(=O)N(C)C
- IC50 (Plasmodium falciparum [1]): > 40 µM

Compound: Cc1cc(C=O)c(C)n1-c1ccc(F)cc1
- inhibition at 120 µM (Plasmodium falciparum K1 [2]): 50%
- IC50 (Plasmodium falciparum [7]): > 5 µM
- cytotoxicity at 120 µM [3]: 25%
- inhibition at 120 µM (Plasmodium falciparum [4]): 60%
